From patent US10556907B2 (AbbVie Inc., priority 2015, dated 2020)
Where a name gives a salt, the structure may show the parent alone.

Legend:
Test in all cases: Method 1: intracellular Ca2+ release (FLIPR, Calcium 5) in recombinant CHO-K1 cells
Format in all cases: cell-based
[1] = target: T1, human S1PR1 receptor (Homo sapiens, UniProt P21453); conditions: (1): determined with method 1; read-out: S1P1 EC50
T1 construct: host or cells: CHO-K1
Procedure, shortened: (§1)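 Potency here reflects Ca2+ release in recombinant CHO-K1 cells carrying Gq/i5, measured by Calcium 5 fluorescence on FLIPR at RT in pH 7.4 Hepes-buffered HBSS with probenecid. EC50 values were fitted after scaling to phospho-fingolimod.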

[2] = target: T2, human S1PR4 receptor (Homo sapiens, UniProt O95977); conditions: (1): determined with method 1; read-out: S1P4 EC50
T2 construct: host or cells: CHO-K1
T2 sequence (O95977 1-384): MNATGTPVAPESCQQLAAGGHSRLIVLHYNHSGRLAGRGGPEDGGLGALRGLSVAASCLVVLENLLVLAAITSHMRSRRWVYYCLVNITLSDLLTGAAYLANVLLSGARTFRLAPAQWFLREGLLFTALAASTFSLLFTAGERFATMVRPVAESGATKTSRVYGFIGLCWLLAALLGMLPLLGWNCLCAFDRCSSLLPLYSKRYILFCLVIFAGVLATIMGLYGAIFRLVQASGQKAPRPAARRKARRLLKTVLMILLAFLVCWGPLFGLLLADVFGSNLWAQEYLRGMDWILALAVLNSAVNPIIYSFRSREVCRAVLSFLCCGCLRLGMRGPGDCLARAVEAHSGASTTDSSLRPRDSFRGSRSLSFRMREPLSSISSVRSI
Procedure, shortened: as §1

[3] = target: T3, human S1PR5 receptor (Homo sapiens, UniProt Q9H228); conditions: agonist potency, determined with method 1 (symbols A-D); read-out: S1P5 EC50 range
T3 construct: host or cells: CHO-K1
T3 sequence (Q9H228 whole entry): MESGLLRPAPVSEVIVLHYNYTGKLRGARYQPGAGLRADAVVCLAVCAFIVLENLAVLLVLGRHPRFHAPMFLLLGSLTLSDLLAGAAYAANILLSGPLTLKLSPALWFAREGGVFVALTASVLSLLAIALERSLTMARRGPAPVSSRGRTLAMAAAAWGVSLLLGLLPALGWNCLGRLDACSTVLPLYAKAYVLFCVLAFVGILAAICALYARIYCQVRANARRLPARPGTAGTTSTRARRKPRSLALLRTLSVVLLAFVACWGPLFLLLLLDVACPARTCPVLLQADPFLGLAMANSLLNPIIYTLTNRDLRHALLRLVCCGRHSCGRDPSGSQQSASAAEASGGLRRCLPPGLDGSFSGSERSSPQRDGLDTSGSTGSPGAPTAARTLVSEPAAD
Procedure, shortened: as §1

T1 sequence (P21453 whole entry): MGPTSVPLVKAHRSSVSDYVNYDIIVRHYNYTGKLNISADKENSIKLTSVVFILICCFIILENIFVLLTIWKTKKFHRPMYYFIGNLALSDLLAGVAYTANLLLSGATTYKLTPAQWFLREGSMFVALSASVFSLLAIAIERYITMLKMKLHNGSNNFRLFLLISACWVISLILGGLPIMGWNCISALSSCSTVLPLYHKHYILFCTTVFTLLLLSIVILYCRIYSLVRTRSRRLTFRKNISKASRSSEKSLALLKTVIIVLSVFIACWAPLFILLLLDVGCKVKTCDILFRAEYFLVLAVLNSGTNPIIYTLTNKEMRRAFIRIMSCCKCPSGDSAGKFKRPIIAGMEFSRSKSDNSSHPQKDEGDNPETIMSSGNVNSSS

EC50 [1] [nM] | EC50 [2] [nM] | EC50 [3] [nM] | Structure (SMILES)
> 1000 | > 1000 | 100 to 1000 | O=C(O)C1CC(N2CCc3nc(-c4ccc(OCc5ccc(Cl)cc5)cc4)ncc3C2)C1 (stereo not drawn) [Compound 287, 3-(2-(4-((4-chlorobenzyl)oxy)phenyl)-7,8-dihydropyrido[4,3-d]pyrimidin-6(5H)-yl)cyclobutanecarboxylic acid]
> 1000 | > 1000 | 100 to 1000 | O=C(O)C1CCC(N2CCc3nc(-c4ccc(OCc5cccc(Cl)c5)cc4)ncc3C2)C1 (stereo not drawn) [Compound 288, 3-(2-(4-((3-chlorobenzyl)oxy)phenyl)-7,8-dihydropyrido[4,3-d]pyrimidin-6(5H)-yl)cyclopentanecarboxylic acid hydrochloride]
> 1000 | > 1000 | 100 to 1000 | CC(CC(=O)O)CN1CCc2nc(-c3ccc(OCc4cccc(F)c4)cc3F)ncc2C1 (stereo not drawn) [Compound 289, 4-[2-[2-fluoro-4-[(3-fluorophenyl)methoxy]phenyl]-7,8-dihydro-5H-pyrido[4,3-d]pyrimidin-6-yl]-3-methyl-butanoic acid 2,2,2-trifluoroacetic acid salt]
> 1000 | > 1000 | 100 to 1000 | Cc1ccc(C(F)(F)F)c(COc2ccc(-c3ncc4c(n3)CCN(CC(C)CC(=O)O)C4)c(F)c2)c1 (stereo not drawn) [Compound 290, 4-[2-[2-fluoro-4-[[5-methyl-2-(trifluoromethyl)phenyl]methoxy]phenyl]-7,8-dihydro-5H-pyrido[4,3-d]pyrimidin-6-yl]-3-methyl-butanoic acid 2,2,2-trifluoroacetic acid salt]
> 1000 | > 1000 | 100 to 1000 | Cc1cc(-c2ncc3c(n2)CCN(CC(C)CC(=O)O)C3)ccc1CCc1ccc(Cl)cc1 (stereo not drawn) [Compound 291, 4-(2-(4-(4-chlorophenethyl)-3-methylphenyl)-7,8-dihydropyrido[4,3-d]pyrimidin-6(5H)-yl)-3-methylbutanoic acid]
> 1000 | > 1000 | 100 to 1000 | CC(CC(=O)O)CN1CCc2nc(-c3ccc(CCc4cccc(Cl)c4)cc3F)ncc2C1 (stereo not drawn) [Compound 292, 4-(2-(4-(3-chlorophenethyl)-2-fluorophenyl)-7,8-dihydropyrido[4,3-d]pyrimidin-6(5H)-yl)-3-methylbutanoic acid]
> 1000 | > 1000 | 100 to 1000 | CC(CC(=O)O)CN1CCc2nc(-c3ccc(C4CC4c4cccc(Cl)c4)cc3)ncc2C1 (stereo not drawn) [Compound 293, 4-(2-(4-(2-(3-chlorophenyl)cyclopropyl)phenyl)-7,8-dihydropyrido[4,3-d]pyrimidin-6(5H)-yl)-3-methylbutanoic acid]
> 1000 | > 1000 | 100 to 1000 | O=C(O)C1CCC(N2CCc3nc(-c4ccc(OCc5ccc(Cl)cc5)cc4)ncc3C2)C1 (stereo not drawn) [Compound 295, 3-(2-(4-((4-chlorobenzyl)oxy)phenyl)-7,8-dihydropyrido[4,3-d]pyrimidin-6(5H)-yl)cyclopentanecarboxylic acid]
> 1000 | > 1000 | 100 to 1000 | CCc1ccccc1COc1ccc(-c2ncc3c(n2)CCN(CC(C)CC(=O)O)C3)c(F)c1 (stereo not drawn) [Compound 296, 4-[2-[4-[(2-ethylphenyl)methoxy]-2-fluoro-phenyl]-7,8-dihydro-5H-pyrido[4,3-d]pyrimidin-6-yl]-3-methyl-butanoic acid 2,2,2-trifluoroacetic acid salt]
> 1000 | > 1000 | 100 to 1000 | CC(CC(=O)O)CN1CCc2nc(-c3ccc(/C=C/c4ccc(Cl)cc4)cc3)ncc2C1 (stereo not drawn) [Compound 297, 4-(2-(4-(4-chlorostyryl)phenyl)-7,8-dihydropyrido[4,3-d]pyrimidin-6(5H)-yl)-3-methylbutanoic acid]
> 1000 | > 1000 | 100 to 1000 | CC(CC(=O)O)CN1CCc2nc(-c3ccc(OCc4ccc(F)cc4)cc3F)ncc2C1 (stereo not drawn) [Compound 298, 4-[2-[2-fluoro-4-[(4-fluorophenyl)methoxy]phenyl]-7,8-dihydro-5H-pyrido[4,3-d]pyrimidin-6-yl]-3-methyl-butanoic acid 2,2,2-trifluoroacetic acid salt]
> 1000 | > 1000 | 100 to 1000 | CC(C(=O)O)N1CCc2nc(-c3ccc(OCc4cc(F)cc(F)c4)cc3)ncc2C1 (stereo not drawn) [Compound 299, 2-(2-(4-((3,5-difluorobenzyl)oxy)phenyl)-7,8-dihydropyrido[4,3-d]pyrimidin-6(5H)-yl)propanoic acid]
> 1000 | > 1000 | 100 to 1000 | Cc1cc(-c2ncc3c(n2)CCN(CC(C)CC(=O)O)C3)ccc1OCc1cccc(C)c1C (stereo not drawn) [Compound 300, 4-[2-[4-[(2,3-dimethylphenyl)methoxy]-3-methyl-phenyl]-7,8-dihydro-5H-pyrido[4,3-d]pyrimidin-6-yl]-3-methyl-butanoic acid 2,2,2-trifluoroacetic acid salt]
> 1000 | > 1000 | 100 to 1000 | Cc1ccc(COc2ccc(-c3ncc4c(n3)CCN(CC(C)CC(=O)O)C4)cc2C)cc1 (stereo not drawn) [Compound 301, 3-methyl-4-[2-[3-methyl-4-(p-tolylmethoxy)phenyl]-7,8-dihydro-5H-pyrido[4,3-d]pyrimidin-6-yl]butanoic acid 2,2,2-trifluoroacetic acid salt]
> 1000 | > 1000 | 100 to 1000 | Cc1cc(-c2ncc3c(n2)CCN(CC(C)CC(=O)O)C3)ccc1OCc1cccc(C(F)(F)F)c1 (stereo not drawn) [Compound 302, 3-methyl-4-[2-[3-methyl-4-[[3-(trifluoromethyl)phenyl]methoxy]phenyl]-7,8-dihydro-5H-pyrido[4,3-d]pyrimidin-6-yl]butanoic acid 2,2,2-trifluoroacetic acid salt]
> 1000 | < 1000 | 100 to 1000 | Cc1ccccc1COc1ccc(-c2ncc3c(n2)CCN(C[C@H](C)CC(=O)O)C3)cc1C [Compound 303]
> 1000 | > 1000 | 100 to 1000 | Cc1ccc(COc2ccc(-c3ncc4c(n3)CCN(CC(C)CC(=O)O)C4)c(F)c2)c(C)c1 (stereo not drawn) [Compound 304, 4-[2-[4-[(2,4-dimethylphenyl)methoxy]-2-fluoro-phenyl]-7,8-dihydro-5H-pyrido[4,3-d]pyrimidin-6-yl]-3-methyl-butanoic acid 2,2,2-trifluoroacetic acid salt]
> 1000 | > 1000 | 100 to 1000 | Cc1ccc(COc2ccc(-c3ncc4c(n3)CCN(CC(C)CC(=O)O)C4)cc2C)c(C)c1 (stereo not drawn) [Compound 305, 4-[2-[4-[(2,4-dimethylphenyl)methoxy]-3-methyl-phenyl]-7,8-dihydro-5H-pyrido[4,3-d]pyrimidin-6-yl]-3-methyl-butanoic acid 2,2,2-trifluoroacetic acid salt]
> 1000 | > 1000 | 100 to 1000 | CCc1ccc(COc2ccc(-c3ncc4c(n3)CCN(CC(C)CC(=O)O)C4)cc2C)cc1 (stereo not drawn) [Compound 306, 4-[2-[4-[(4-ethylphenyl)methoxy]-3-methyl-phenyl]-7,8-dihydro-5H-pyrido[4,3-d]pyrimidin-6-yl]-3-methyl-butanoic acid 2,2,2-trifluoroacetic acid salt]
> 1000 | > 1000 | 100 to 1000 | Cc1ccc(COc2ccc(-c3ncc4c(n3)CCN(CC(C)CC(=O)O)C4)c(F)c2)cc1 (stereo not drawn) [Compound 307, 4-[2-[2-fluoro-4-(p-tolylmethoxy)phenyl]-7,8-dihydro-5H-pyrido[4,3-d]pyrimidin-6-yl]-3-methyl-butanoic acid 2,2,2-trifluoroacetic acid salt]
> 1000 | < 1000 | 100 to 1000 | CCc1ccccc1COc1ccc(-c2ncc3c(n2)CCN(CC(C)CC(=O)O)C3)cc1C (stereo not drawn) [Compound 308, 4-[2-[4-[(2-ethylphenyl)methoxy]-3-methyl-phenyl]-7,8-dihydro-5H-pyrido[4,3-d]pyrimidin-6-yl]-3-methyl-butanoic acid 2,2,2-trifluoroacetic acid salt]
> 1000 | > 1000 | 100 to 1000 | Cc1cc(-c2ncc3c(n2)CCN(CC(C)CC(=O)O)C3)ccc1OCc1ccccc1C(F)(F)F (stereo not drawn) [Compound 309, 3-methyl-4-[2-[3-methyl-4-[[2-(trifluoromethyl)phenyl]methoxy]phenyl]-7,8-dihydro-5H-pyrido[4,3-d]pyrimidin-6-yl]butanoic acid 2,2,2-trifluoroacetic acid salt]
> 1000 | > 1000 | 100 to 1000 | Cc1cc(-c2ncc3c(n2)CCN(CC(C)CC(=O)O)C3)ccc1OCc1ccc(C(C)C)cc1 (stereo not drawn) [Compound 310, 4-[2-[4-[(4-isopropylphenyl)methoxy]-3-methyl-phenyl]-7,8-dihydro-5H-pyrido[4,3-d]pyrimidin-6-yl]-3-methyl-butanoic acid 2,2,2-trifluoroacetic acid salt]
> 1000 | > 1000 | 100 to 1000 | Cc1ccc(C)c(COc2ccc(-c3ncc4c(n3)CCN(CC(C)CC(=O)O)C4)cc2C)c1 (stereo not drawn) [Compound 311, 4-[2-[4-[(2,5-dimethylphenyl)methoxy]-3-methyl-phenyl]-7,8-dihydro-5H-pyrido[4,3-d]pyrimidin-6-yl]-3-methyl-butanoic acid 2,2,2-trifluoroacetic acid salt]
